Laboratory results published in patent US8362000B2, “Azetidinyl diamides as monoacylglycerol lipase inhibitors” (Janssen Pharmaceutica NV, priority 2009, dated 2013).
Residue numbers refer to the chain shown, from its start. Read-outs that look alike come from different tables or passages of the source.

Columns and labels:
[1] = system: CFA-induced paw radiant heat hypersensitivity; experiment: CFA-induced paw radiant heat hypersensitivity; type: in vivo, rat; details: Rattus norvegicus, po, HPβCD; for inhibition in vivo at 10 mg/kg: 5 h, 10 mg/kg p.o., last time point 300 min; for inhibition in vivo at 30 mg/kg: 30 mg/kg p.o., last time point 180 or 300 min
Protocol: Each rat was placed in a test chamber on a warm glass surface and allowed to acclimate for approximately 10 min. A radiant thermal stimulus (beam of light) was then focused through the glass onto the plantar surface of each hind paw in turn. The thermal stimulus was automatically shut off by a photoelectric relay when the paw was moved or when the cut-off time was reached (20 sec for radiant heat at ˜5 amps). An initial (baseline) response latency to the thermal stimulus was recorded for each animal prior to the injection of complete Freund's adjuvant (CFA). […] Immediately following the post-CFA latency assessment, the indicated test compound or vehicle was administered orally.
The percent reversal (% R) of hypersensitivity was calculated in one of two different ways: 1) using group mean values or 2) using individual animal values. More specifically:
Method 2. For some compounds, the % R of hypersensitivity was calculated separately for each animal according to the following formula: % reversal=[(individual treatment response−individual CFA response)/(individual baseline response−individual CFA response)]×100. Results are given as a mean of the maximum % reversal values calculated for each individual animal.

MGL = biological target: T1, MGL (Rattus norvegicus, UniProt Q8R431); experiment: 2-AG accumulation assay in rat brain homogenate; type: biochemical; details: rat brain homogenate; compound 1 μM; 2-AG accumulation as percent of vehicle; read-out: Rat Brain 2AG % VehCntrl (%) @ 1 μM
T1 construct: one g rat brain was homogenized using a Polytron homogenizer; from tissue; host or cells: rat brain homogenate
T1 sequence (Q8R431 1-303): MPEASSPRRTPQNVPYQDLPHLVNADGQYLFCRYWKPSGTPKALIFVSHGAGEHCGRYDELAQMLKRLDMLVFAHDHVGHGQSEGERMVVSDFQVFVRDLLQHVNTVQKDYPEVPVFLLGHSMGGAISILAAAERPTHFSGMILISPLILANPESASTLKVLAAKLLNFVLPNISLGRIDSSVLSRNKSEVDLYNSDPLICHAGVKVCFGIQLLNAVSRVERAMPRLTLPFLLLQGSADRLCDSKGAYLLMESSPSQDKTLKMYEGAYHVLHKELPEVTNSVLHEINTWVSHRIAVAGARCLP

mutant MGL = biological target: T2, mutant MGL (Homo sapiens, UniProt Q99685, L169S/L176S); experiment: MGL ThermoFluor assay - mutant; type: binding
T2 sequence (Q99685 1-303 L169S/L176S): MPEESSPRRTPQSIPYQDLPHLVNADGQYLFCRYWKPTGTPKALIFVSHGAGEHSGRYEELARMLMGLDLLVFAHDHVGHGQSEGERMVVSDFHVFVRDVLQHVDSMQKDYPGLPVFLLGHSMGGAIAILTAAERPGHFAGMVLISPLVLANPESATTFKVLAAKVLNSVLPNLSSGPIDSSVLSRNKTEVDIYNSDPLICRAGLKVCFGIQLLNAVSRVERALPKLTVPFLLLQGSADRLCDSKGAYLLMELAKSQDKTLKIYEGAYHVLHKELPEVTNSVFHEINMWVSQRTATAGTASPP

[2] = biological target: T3, purified wild type MGL (wt-MGLL 6H-11-313) (Homo sapiens, UniProt Q99685)
T3 sequence (Q99685 1-303): T2 sequence (Q99685 1-303 L169S/L176S) with S169L, S176L

[3] = group mean values, read-out: CFA thermal hypersensitivity Method 1: peak % reversal
[4] = individual animal values, read-out: CFA thermal hypersensitivity Method 2: peak % reversal
[5] = ThermoFluor concentration-response, read-out: MGL mutant ThermoFluor Kd
[6] = ThermoFluor thermal stability binding assay, read-out: MGL mutant ThermoFluor Kd
[7] = compound concentration measured by qNMR, read-out: MGL mutant ThermoFluor qKd (using qNMR conc.)
[8] = ThermoFluor, compound concentration measured by qNMR, read-out: MGL mutant ThermoFluor qKd (μM) (using qNMR conc.)

Structure (SMILES) | 2-AG accumulation, % of vehicle control at 1 µM (MGL) | IC50 [2] | Kd (mutant MGL; [8]) | also measured
O=C(c1ccccc1)N1CCN(C2CN(C(=O)c3ccc4c(ccn4-c4ccc(C(F)(F)F)cc4)c3)C2)CC1 [Cpd 126, 5-({3-[4-(Phenylcarbonyl)piperazin-1-yl]azetidin-1-yl}carbonyl)-1-[4-(trifluoromethyl)phenyl]-1H-indole] |  |  |  | inhibition in vivo at 10 mg/kg [1, 3]: 40.8%; inhibition in vivo at 10 mg/kg [1, 4]: 40.4%; inhibition in vivo at 30 mg/kg [1, 3]: 51%; inhibition in vivo at 30 mg/kg [1, 4]: 79.5%
O=C(c1ccc2nc(-c3ccccc3)oc2c1)N1CC(N2CCN(C(=O)c3nccs3)CC2)C1 [Cpd 318, 2-Phenyl-6-({3-[4-(1,3-thiazol-2-ylcarbonyl)piperazin-1-yl]azetidin-1-yl}carbonyl)-1,3-benzoxazole] |  |  |  | inhibition in vivo at 30 mg/kg [1, 3]: 44.7%
O=C(c1cscn1)N1CCN(C2CN(C(=O)c3sc4cc(C(F)(F)F)ccc4c3Cl)C2)CC1 [Cpd 335, 1-(1-{[3-Chloro-6-(trifluoromethyl)-1-benzothiophen-2-yl]carbonyl}azetidin-3-yl)-4-(1,3-thiazol-4-ylcarbonyl)piperazine] |  |  |  | inhibition in vivo at 30 mg/kg [1, 3]: 108%; inhibition in vivo at 30 mg/kg [1, 4]: 135%
O=C(c1ccc2c(ccn2-c2ccc(F)cc2)c1)N1CC(N2CCN(C(=O)c3nccs3)CC2)C1 [Cpd 487, 1-(4-Fluorophenyl)-5-({3-[4-(1,3-thiazol-2-ylcarbonyl)piperazin-1-yl]azetidin-1-yl}carbonyl)-1H-indole] |  |  |  | inhibition in vivo at 30 mg/kg [1, 3]: 109%; inhibition in vivo at 30 mg/kg [1, 4]: 166%
O=C(c1ccccc1)N1CCN(C2CN(C(=O)c3ccc4c(ccn4-c4ccc(F)cc4)c3)C2)CC1 [Cpd 567, 1-(4-Fluorophenyl)-5-({3-[4-(phenylcarbonyl)piperazin-1-yl]azetidin-1-yl}carbonyl)-1H-indole] |  |  |  | inhibition in vivo at 30 mg/kg [1, 3]: 63.1%
O=C(c1ccc2nc(-c3ccccc3)oc2c1)N1CC(N2CCN(C(=O)c3cscn3)CC2)C1 [Cpd 1141, 2-Phenyl-6-({3-[4-(1,3-thiazol-4-ylcarbonyl)piperazin-1-yl]azetidin-1-yl}carbonyl)-1,3-benzoxazole] |  |  |  | inhibition in vivo at 30 mg/kg [1, 3]: 5.7%
O=C(c1ccc2c(ccn2-c2ccc(C(F)(F)F)cc2)c1)N1CC(N2CCN(C(=O)c3ccc[nH]3)CC2)C1 [Cpd 1339, 5-({3-[4-(1H-Pyrrol-2-ylcarbonyl)piperazin-1-yl]azetidin-1-yl}carbonyl)-1-[4-(trifluoromethyl)phenyl]-1H-indole] | 574% | < 5 nM |  | Kd (mutant MGL; [5]): 0.013 µM
O=C(c1cc2cc(-c3ccccc3)ccc2o1)N1CC(N2CCN(C(=O)c3nccs3)CC2)C1 [Cpd 1342] | 346% | < 5 nM |  | Kd (mutant MGL; [6]): 0.136 µM
O=C(c1cc2cc(-c3cccc(C(F)(F)F)c3)ccc2o1)N1CC(N2CCN(C(=O)c3nccs3)CC2)C1 [Cpd 1343] | 838% | < 5 nM |  | Kd (mutant MGL; [6]): 0.077 µM
O=C(c1ccc2c(-c3ccc(C(F)(F)F)cc3)c[nH]c2c1)N1CC(N2CCN(C(=O)c3cscn3)CC2)C1 [Cpd 1344] | 543% | < 5 nM |  | Kd (mutant MGL; [5]): 0.01 µM
O=C(c1ccc2c(-c3cccc(C(F)(F)F)c3)c[nH]c2c1)N1CC(N2CCN(C(=O)c3cscn3)CC2)C1 [Cpd 1345] | 459% | < 5 nM |  | Kd (mutant MGL; [5]): 0.006 µM
Cc1c(C(=O)N2CC(N3CCN(C(=O)c4nccs4)CC3)C2)sc2ccc(-c3ccccc3)cc12 [Cpd 1346, 1-{1-[(3-Methyl-5-phenyl-1-benzothiophen-2-yl)carbonyl]azetidin-3-yl}-4-(1,3-thiazol-2-ylcarbonyl)piperazine] | 406% | < 5 nM |  | Kd (mutant MGL; [5]): 0.002 µM
O=C(c1nccs1)N1CCN(C2CN(C(=O)c3cc4ccn(-c5ccc(F)cc5)c4cc3F)C2)CC1 [Cpd 1349] | 846% | < 5 nM |  | Kd (mutant MGL; [5]): 0.005 µM; Kd (mutant MGL; [7]): 0.006 µM
O=C(c1cc(F)c2c(ccn2-c2ccc(F)cc2)c1)N1CC(N2CCN(C(=O)c3nccs3)CC2)C1 [Cpd 1350, 7-Fluoro-1-(4-fluorophenyl)-5-({3-[4-(1,3-thiazol-2-ylcarbonyl)piperazin-1-yl]azetidin-1-yl}carbonyl)-1H-indole] | 873% | < 5 nM |  | Kd (mutant MGL; [7]): 0.001 µM
Cc1sc(C(=O)N2CC(N3CCN(C(=O)c4nccs4)CC3)C2)cc1-c1cccc(C(F)(F)F)c1 [Cpd 1351] | 718% | < 5 nM | 0.043 µM | 
Cc1cc(C(=O)N2CC(N3CCN(C(=O)c4nccs4)CC3)C2)sc1-c1ccc(C(F)(F)F)cc1 [Cpd 1352] | 548% | < 5 nM | 0.008 µM | 
Cc1cc(C(=O)N2CC(N3CCN(C(=O)c4nccs4)CC3)C2)sc1-c1ccc(F)cc1 [Cpd 1353] | 545% | < 5 nM | 0.018 µM | 
Cc1cc(C(=O)N2CC(N3CCN(C(=O)c4nccs4)CC3)C2)sc1-c1cccc(C(F)(F)F)c1 [Cpd 1354] | 750% | < 5 nM | 0.009 µM | 
O=C(c1ccc(-c2ccc(C(F)(F)F)s2)cc1)N1CC(N2CCN(C(=O)c3nccs3)CC2)C1 [Cpd 1361, 1-(1,3-Thiazol-2-ylcarbonyl)-4-[1-({4-[5-(trifluoromethyl)thiophen-2-yl]phenyl}carbonyl)azetidin-3-yl]piperazine] | 994% | < 5 nM |  | Kd (mutant MGL; [5]): 0.003 µM
O=C(c1ccc2c(c1)c(Cl)cn2-c1ccc(F)cc1)N1CC(N2CCN(C(=O)c3nccs3)CC2)C1 [Cpd 1365, 3-Chloro-1-(4-fluorophenyl)-5-({3-[4-(1,3-thiazol-2-ylcarbonyl)piperazin-1-yl]azetidin-1-yl}carbonyl)-1H-indole] | 909% | < 5 nM |  | Kd (mutant MGL; [5]): 0.002 µM
O=C(c1ccc2c(ccn2-c2cc(F)c(F)c(F)c2)c1)N1CC(N2CCN(C(=O)c3nccs3)CC2)C1 [Cpd 1367] | 798% | < 5 nM |  | Kd (mutant MGL; [6]): 0.002 µM
Cc1cn(-c2cccc(F)c2)c2ccc(C(=O)N3CC(N4CCN(C(=O)c5nccs5)CC4)C3)cc12 [Cpd 1368] | 859% | < 5 nM | 0.001 µM | 
O=C(c1ccc2c(ccn2-c2ccc(OC(F)(F)F)cc2)c1)N1CC(N2CCN(C(=O)c3nccs3)CC2)C1 [Cpd 1369] | 874% | < 5 nM | 0.002 µM | 
O=C(c1ccc2c(ccn2-c2ccc(OC(F)(F)F)cc2)c1)N1CC(N2CCN(C(=O)c3cscn3)CC2)C1 [Cpd 1370] | 773% | < 5 nM | 0.013 µM | 
O=C(c1ccc2c(ccn2-c2cc(F)cc(F)c2)c1)N1CC(N2CCN(C(=O)c3nccs3)CC2)C1 [Cpd 1371] | 827% | < 5 nM | 0.003 µM | 
Cc1cc(C(=O)N2CCN(C3CN(C(=O)c4ccc(-c5ccccc5)cc4)C3)CC2)no1 [Cpd 1465] | 110% | > 16700 nM |  | Kd (mutant MGL; [6]): > 31.2 µM
